Target: T1, human membrane progestin receptor α (hmPRα) (Homo sapiens, UniProt Q86WK9)
T1 sequence (Q86WK9 1-346): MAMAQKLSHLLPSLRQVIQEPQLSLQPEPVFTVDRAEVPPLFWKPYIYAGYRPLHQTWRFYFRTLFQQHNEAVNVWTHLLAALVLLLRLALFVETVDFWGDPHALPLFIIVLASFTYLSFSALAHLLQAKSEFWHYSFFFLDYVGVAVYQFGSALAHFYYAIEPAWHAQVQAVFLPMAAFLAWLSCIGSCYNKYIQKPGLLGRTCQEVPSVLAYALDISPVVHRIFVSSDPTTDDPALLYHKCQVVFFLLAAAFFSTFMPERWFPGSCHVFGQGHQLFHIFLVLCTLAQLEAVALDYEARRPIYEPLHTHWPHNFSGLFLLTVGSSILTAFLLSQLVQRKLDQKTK
Test: GQD-hmPRα fluorescence competition with P4-BSA-FITC
Format: binding

| SMILES | IC50 [µM] |
| --- | --- |
| CCCC(O)C(=O)OC(CCC)C(=O)O (centres unmarked) [1-CB 2-HPNA, 1-carboxybutyl 2-hydroxypentanoate] | 1.26 |
| CC(=O)[C@H]1CC[C@H]2[C@@H]3CCC4=CC(=O)CC[C@]4(C)[C@H]3CC[C@]12C [progesterone] | 1.9 |

— article PMC12901071 (Scientific Reports, 2026)
